Measurements published in patent US9556232B2, “Anti-angiogenic molecules, nanostructures and uses thereof” (Northwestern University, priority 2013, dated 2017).
“Also recorded” adds a separate entry of the source.

How the values were obtained:
[1] = system: HUVECs; assay: Flow cytometry and confocal microscopy to assess PA binding to HUVECs; type: cell-based, human
Description: Flow Cytometry and Confocal Microscopy to Assess PA Binding.
Stock fluorescent PA and peptide solutions were made by dissolving FITC-labeled molecules in PBS at a concentration of 200 μM (assuming peptide content of 90%). Stock fluorescent solutions were then mixed in equal volumes with 1 mM stock solutions of non-fluorescent PA or peptide solution and allowed to sit overnight at room temperature to make working solutions. Subconfluent human umbilical vein endothelial cells (HUVECs) were incubated for 2 hr in starvation media before detaching with 0.05% trypsin/EDTA. Cells were then spun down to remove trypsin/EDTA and were re-suspended in starvation media at 250,000/mL. Working peptide and PA solutions then added to cell suspensions such that the final concentration corresponded to 10 μM non-fluorescent molecule. After incubating at 37° C. for 30 mins, cells were spun down and resuspended in Hank's balanced salt solution (HBSS) twice. Fluorescence signal of each cell was quantified using a LSRFortessa cell analyzer (BD Biosciences). Cells were also plated on poly-d-lysine coated glass coverslips, fixed with 4% paraformaldehyde, and embedded in mounting media for imaging using an AIR laser scanning confocal microscope (Nikon). Machine parameters were kept constant for all samples in both confocal microscopy and flow cytometry experiments.

[2] = Critical assembly concentration determination by nile red incorporation; type: physicochemical; conditions: in PBS, nile red blueshift in peak emission
Description: Critical Assembly Concentration Determination by Nile Red Incorporation.
MMPA, MMPep, or ScramPA solutions ranging from 100 nM to 200 μM concentration in PBS were made from stock solutions and NR dissolved in ethanol was diluted 200-fold into solutions to a final concentration of 500 nM. Using a NanoLogHJ spectrofluorometer, samples were excited at 550 nm and spectra were obtained between from 580 nm-750 nm. Blueshift was plotted against concentration to determine the critical assembly concentration.

[3] = system: HUVECs; assay: Assessment of cell adhesion on fibronectin (PicoGreen); type: cell-based, human; conditions: concentration not given
Description: Assessment of Cell Adhesion on Fibronectin.
The effect of peptide and PAs on HUVEC adhesion was assessed. Fibronectin from human plasma (Sigma) was dissolved in sterile MilliQ water and was added to tissue culture-treated 96 well plates at 5 μg/cm2, which were then left to dry overnight at room temperature in a sterile laminar flow hood. Coated plates were stored at 4° C. and warmed to 37° C. prior to use. Subconfluent HUVECs were incubated for 2 hr in starvation media (EndoGRO basal media from Millipore supplemented with 0.5% fetal bovine serum and 1× penicillin-streptomycin from Gibco) before detaching with 0.05% trypsin/EDTA. Cells were then spun down to remove trypsin/EDTA and were re-suspended in PBS containing peptide or PA molecules. Cells were incubated in treatment for 30 min at 37° C. and then plated at 15,000 cells/well. After 45 mins, wells were washed once with PBS to detach loosely adhered cells. A PicoGreen assay (Invitrogen) was used to quantify number of cells in each well. Cell counts were normalized to that obtained in wells with no treatment. Statistical analysis was performed in GraphPad Prism software using one-way analysis of variance (ANOVA) with a Bonferroni's Multiple Comparisons post-test comparing all pairs of columns. For all treatment groups, n=4.

[4] = system: chicken chorioallantoic membrane (CAM); assay: Characterization of angiogenesis in vivo by CAM assay; conditions: 1 mM in PBS from filter paper circles, embryonic day 5, 21 hrs and 42 hrs
Description: Characterization of Angiogenesis In Vivo by CAM Assay.
In vivo assessment of the anti-angiogenic potential of PAs and peptide was performed using the chicken chorioallantoic membrane (CAM). In this well-established CAM assay, angiogenesis of the extraembryonic allantois was measured at several time points after treatment with PAs or peptide. Fertilized chicken eggs (Sunnyside Hatchery) were received and cultured in a temperature controlled, humidified egg incubator. On embryonic day 3, eggs were cracked into 100 mm sterile petri dishes without breaking the yolk sac and were transferred to a water-jacketed humidified CO2 incubator set to 37° C. On embryonic day 5, 5 μL of treatment (PA, peptide, or scrambled PA dissolved in PBS at 1 mM) or control (PBS) solutions were deposited onto autoclaved filter paper circles ¼″ in diameter. Solution-soaked filter paper circles were placed on top of the CAM and digital images were captured using a Nikon stereomicroscope. Vessel density was quantified by counting the number of vessels intersecting the circumference of filter paper circles and is expressed relative to the initial time point. ANOVA with a Dunnett's Multiple Comparisons post-test of each treatment condition against control was performed using GraphPad Prism software. A minimum of n=5 samples was analyzed for each treatment condition at each time point.

[5] = system: HUVECs; assay: Assay of angiogenesis in vitro by tube formation; type: cell-based, human; conditions: HUVECs on matrigel, imaged 5 hrs after addition of treatment
Description: Assay of Angiogenesis In Vitro by Tube Formation.
Wells of a 96-well plate were coated with ECMatrix solution, and 5×10^3 HUVECs were plated in triplicate wells in a volume of 50 μL of endothelial growth medium (EGM) containing 0.5% FBS with 50 ng/mL bFGF for 2 hours. MMPA, MMPep, ScramPA treatments at respective dosages were added to the wells for 5 hours. Tube formation was evaluated by phase-contrast microscopy using an Olympus IX-70 microscope (100× magnification) connected to a Diagnostic Instruments Spot RT Camera. Experiments were repeated independently three times.

[6] = system: HUVECs; assay: Assessment of cell migration on fibronectin (live-cell imaging); type: cell-based, human; conditions: HUVECs on FN-coated glass, bFGF stimulus, 10 μM
Description: Assessment of Cell Migration on Fibronectin.
Fibronectin from human plasma was coated onto tissue culture-treated 4-chamber glass-bottom petri dishes (In Vitro Scientific) at 7 μg/cm2 as previously described. Subconfluent HUVECs were incubated for 2 hr in starvation media before detaching with 0.05% trypsin/EDTA. Cells were then spun down to remove trypsin/EDTA, re-suspended in starvation media, and plated onto glass-bottom petri dishes at a concentration of 4000 cells per chamber. After cells attached (approximately 1 hr at 37° C.)., the media was aspirated and replaced with starvation media containing […] basic fibroblast growth factor (bFGF) and 10 μM MMPA, MMPep, or Scram PA. Live-cell imaging was performed on a Nikon BioStation IM at 37° C., and cell migration was quantified manually using a plugin to track the location of the cell nucleus every 30 mins in ImageJ software. ANOVA with a Dunnett's Multiple Comparisons post-test of each treatment condition against control was performed using GraphPad Prism software. For control, MMPA, MMPep, and ScramPA, n=56, 54, 31, and 42 respectively.

## MMPep: 15-residue peptide: maspin g-helix sequence plus two residues on either end, EDESTGLEKIEKQLN, synthesized as previously reported [reference compound]
[1]; FACS, HUVECs, FITC-labeled molecule mixed with non-fluorescent molecule, 10 μM, 30 mins 37° C.
  median FITC intensity per cell: 2.6 times that of untreated control
[1]; HUVECs treated with FITC-labeled PAs and peptide
  cell binding (FACS, HUVEC fluorescence): binds to cells significantly less effectively than PA nanostructures
[2]
  critical aggregation assembly concentration (CAC): > 200 µM
[3]
  HUVEC adhesion to FN surface vs untreated controls: do not show this effect; also recorded: unable to improve cell adhesion over untreated controls
[4]
  angiogenesis in CAM (vessels intersecting filter paper circumference, normalized to initial count) vs PBS control: present but is statistically insignificant
[5]
  inhibition of tube formation: slightly effective at greater than 10 μM; also recorded: partially inhibited tube formation at higher concentrations (10 μM)
[6]
  cell motility / migration vs PBS control: statistically less migratory (P<0.05); also recorded: significantly decrease cell motility over untreated controls
[6]; measured over at least 2 hrs and up to 8 hrs
  average cell migration speed: 0.30 μm/min
